Test results reported in article PMC6199744, “Development of Chemical Proteomics for the Folateome and Analysis of the Kinetoplastid Folateome” (ACS Infectious Diseases, 2018).
Like-named read-outs stand apart in the source and are kept apart here.

Legend:
Format in all cases: binding
[1] = target: T1, HeLa cell extract proteins (Homo sapiens, UniProt P10619)
T1 construct: endogenous in cells; host or cells: HeLa cell extract
T1 sequence (P10619 29-480): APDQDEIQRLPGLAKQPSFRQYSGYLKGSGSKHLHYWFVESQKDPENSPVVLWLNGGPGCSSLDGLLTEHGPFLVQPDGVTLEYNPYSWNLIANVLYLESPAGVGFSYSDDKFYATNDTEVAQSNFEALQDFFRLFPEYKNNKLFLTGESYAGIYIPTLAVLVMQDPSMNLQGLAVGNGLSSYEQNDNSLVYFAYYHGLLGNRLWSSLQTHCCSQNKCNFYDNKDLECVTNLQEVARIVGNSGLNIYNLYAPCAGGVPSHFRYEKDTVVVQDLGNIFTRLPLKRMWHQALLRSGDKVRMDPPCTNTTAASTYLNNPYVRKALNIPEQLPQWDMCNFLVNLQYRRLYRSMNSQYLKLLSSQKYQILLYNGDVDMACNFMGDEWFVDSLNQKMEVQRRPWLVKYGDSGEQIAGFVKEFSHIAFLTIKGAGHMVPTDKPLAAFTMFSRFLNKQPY

[2] = target: T2, HeLa cell extract proteins (Homo sapiens, UniProt P12268)
T2 construct: endogenous in cells; host or cells: HeLa cell extract

[3] = target: T3, HeLa cell extract proteins (Homo sapiens, UniProt P20671)
T3 construct: endogenous in cells; host or cells: HeLa cell extract

[4] = target: T4, HeLa cell extract proteins (Homo sapiens, UniProt P35268)
T4 construct: endogenous in cells; host or cells: HeLa cell extract

[5] = target: T5, HeLa cell extract proteins (Homo sapiens, UniProt Q8NB46)
T5 construct: endogenous in cells; host or cells: HeLa cell extract
T5 sequence (Q8NB46 1-1076): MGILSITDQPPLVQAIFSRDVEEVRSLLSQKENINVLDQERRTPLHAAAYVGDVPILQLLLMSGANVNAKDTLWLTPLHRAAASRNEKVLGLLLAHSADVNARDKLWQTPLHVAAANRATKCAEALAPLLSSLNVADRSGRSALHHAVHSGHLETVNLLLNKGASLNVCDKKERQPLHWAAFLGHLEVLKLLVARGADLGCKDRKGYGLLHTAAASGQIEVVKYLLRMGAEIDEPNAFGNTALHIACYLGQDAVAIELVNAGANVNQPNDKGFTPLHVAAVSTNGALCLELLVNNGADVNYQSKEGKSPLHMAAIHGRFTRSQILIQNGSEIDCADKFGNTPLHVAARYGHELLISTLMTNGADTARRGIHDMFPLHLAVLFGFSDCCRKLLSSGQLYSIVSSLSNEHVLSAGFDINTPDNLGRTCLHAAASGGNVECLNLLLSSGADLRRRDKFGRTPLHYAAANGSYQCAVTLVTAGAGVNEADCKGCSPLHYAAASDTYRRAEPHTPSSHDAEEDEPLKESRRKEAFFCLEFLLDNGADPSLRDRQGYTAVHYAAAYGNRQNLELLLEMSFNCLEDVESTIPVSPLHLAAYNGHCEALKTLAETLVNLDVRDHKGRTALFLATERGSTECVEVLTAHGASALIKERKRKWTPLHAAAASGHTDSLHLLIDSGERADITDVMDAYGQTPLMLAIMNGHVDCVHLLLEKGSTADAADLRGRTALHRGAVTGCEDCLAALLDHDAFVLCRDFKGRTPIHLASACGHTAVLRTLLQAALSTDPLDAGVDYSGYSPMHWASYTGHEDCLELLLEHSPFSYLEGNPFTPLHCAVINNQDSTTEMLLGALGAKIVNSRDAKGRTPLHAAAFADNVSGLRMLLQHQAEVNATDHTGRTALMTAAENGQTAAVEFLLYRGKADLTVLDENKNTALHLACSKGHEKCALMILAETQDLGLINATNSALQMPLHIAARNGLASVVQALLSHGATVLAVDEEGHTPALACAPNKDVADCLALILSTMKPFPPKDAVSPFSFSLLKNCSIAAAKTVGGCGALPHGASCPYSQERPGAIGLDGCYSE

[6] = target: T6, HeLa cell extract proteins (Homo sapiens, UniProt Q9BPW8)
T6 construct: endogenous in cells; host or cells: HeLa cell extract
T6 sequence (Q9BPW8 36-284): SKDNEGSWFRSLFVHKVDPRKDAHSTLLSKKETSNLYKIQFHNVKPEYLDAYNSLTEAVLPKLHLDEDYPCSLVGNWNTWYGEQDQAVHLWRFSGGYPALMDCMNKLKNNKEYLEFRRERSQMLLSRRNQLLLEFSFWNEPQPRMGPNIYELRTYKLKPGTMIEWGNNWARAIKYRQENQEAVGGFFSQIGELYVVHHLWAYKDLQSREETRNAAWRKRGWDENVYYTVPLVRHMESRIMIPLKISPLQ

[7] = target: T7, HeLa cell extract proteins (Homo sapiens, UniProt O15160)
T7 construct: endogenous in cells; host or cells: HeLa cell extract
T7 sequence (O15160 whole entry): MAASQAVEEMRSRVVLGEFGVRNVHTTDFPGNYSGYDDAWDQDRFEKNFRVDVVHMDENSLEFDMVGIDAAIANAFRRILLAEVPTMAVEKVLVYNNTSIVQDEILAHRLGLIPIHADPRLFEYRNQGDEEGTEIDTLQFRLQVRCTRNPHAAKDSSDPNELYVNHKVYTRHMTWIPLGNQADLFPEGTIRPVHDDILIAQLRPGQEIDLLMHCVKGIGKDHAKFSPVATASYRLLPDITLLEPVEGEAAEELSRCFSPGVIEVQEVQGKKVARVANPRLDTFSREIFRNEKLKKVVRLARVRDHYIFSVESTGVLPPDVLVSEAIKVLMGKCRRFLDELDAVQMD

[8] = target: T8, HeLa cell extract proteins (Homo sapiens, UniProt P30046)
T8 construct: endogenous in cells; host or cells: HeLa cell extract
T8 sequence (P30046 whole entry): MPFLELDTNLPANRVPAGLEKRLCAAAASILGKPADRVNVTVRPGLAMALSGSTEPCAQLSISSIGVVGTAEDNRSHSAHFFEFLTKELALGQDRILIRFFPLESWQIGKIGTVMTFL

[9] = target: T9, HeLa cell extract proteins (Homo sapiens, UniProt Q8TEQ6); settings: protein GEMIN5; HeLa
T9 construct: endogenous in cells; host or cells: HeLa cell extract
T9 sequence (Q8TEQ6 whole entry): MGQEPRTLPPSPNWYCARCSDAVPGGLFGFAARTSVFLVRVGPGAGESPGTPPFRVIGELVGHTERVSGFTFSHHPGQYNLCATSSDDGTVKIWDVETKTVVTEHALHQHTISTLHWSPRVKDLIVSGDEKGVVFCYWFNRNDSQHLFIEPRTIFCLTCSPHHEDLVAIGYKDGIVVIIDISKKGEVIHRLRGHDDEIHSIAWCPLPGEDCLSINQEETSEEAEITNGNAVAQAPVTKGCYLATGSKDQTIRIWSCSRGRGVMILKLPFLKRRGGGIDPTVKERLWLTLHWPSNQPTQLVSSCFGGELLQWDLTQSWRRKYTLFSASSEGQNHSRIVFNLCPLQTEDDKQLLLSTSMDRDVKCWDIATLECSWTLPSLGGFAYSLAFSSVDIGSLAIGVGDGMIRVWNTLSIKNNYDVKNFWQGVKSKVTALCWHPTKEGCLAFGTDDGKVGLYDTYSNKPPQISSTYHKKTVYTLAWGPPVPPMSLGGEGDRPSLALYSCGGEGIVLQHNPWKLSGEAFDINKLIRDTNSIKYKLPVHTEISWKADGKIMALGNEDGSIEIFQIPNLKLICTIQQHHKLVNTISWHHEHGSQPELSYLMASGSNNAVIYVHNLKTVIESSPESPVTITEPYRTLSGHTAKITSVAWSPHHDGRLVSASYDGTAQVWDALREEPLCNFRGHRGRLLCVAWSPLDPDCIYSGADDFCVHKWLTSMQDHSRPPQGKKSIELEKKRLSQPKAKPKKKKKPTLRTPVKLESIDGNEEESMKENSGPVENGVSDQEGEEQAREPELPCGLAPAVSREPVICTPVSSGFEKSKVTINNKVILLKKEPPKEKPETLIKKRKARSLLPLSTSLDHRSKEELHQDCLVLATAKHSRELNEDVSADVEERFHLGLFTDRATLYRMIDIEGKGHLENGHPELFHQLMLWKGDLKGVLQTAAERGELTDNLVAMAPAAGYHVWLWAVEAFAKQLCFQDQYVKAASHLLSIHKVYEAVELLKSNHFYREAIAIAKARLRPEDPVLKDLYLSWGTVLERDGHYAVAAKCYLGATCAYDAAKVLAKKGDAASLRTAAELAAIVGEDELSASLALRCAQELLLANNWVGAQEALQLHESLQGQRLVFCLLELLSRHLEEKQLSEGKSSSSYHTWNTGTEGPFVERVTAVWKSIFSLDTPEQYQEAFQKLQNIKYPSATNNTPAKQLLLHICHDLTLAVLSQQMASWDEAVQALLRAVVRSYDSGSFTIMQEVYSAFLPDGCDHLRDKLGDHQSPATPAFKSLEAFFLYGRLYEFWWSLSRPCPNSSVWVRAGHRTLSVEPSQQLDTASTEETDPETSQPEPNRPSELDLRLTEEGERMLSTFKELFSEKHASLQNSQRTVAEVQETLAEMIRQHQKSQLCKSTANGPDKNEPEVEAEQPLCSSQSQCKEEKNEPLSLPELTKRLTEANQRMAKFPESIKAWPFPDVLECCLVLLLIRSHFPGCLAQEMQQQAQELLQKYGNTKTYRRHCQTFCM

[10] = target: T10, HeLa cell extract proteins (Homo sapiens, UniProt P22061); settings: protein PCMT1; HeLa
T10 construct: endogenous in cells; host or cells: HeLa cell extract
T10 sequence (P22061 whole entry): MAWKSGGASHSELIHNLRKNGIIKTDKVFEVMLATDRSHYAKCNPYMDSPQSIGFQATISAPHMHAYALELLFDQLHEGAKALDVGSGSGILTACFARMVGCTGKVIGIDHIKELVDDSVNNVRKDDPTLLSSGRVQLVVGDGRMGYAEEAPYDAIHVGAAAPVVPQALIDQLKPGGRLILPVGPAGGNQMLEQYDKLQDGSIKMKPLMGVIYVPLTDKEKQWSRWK

[11] = target: T11, HeLa cell extract proteins (Homo sapiens, UniProt P68371); settings: captured protein TUBB2C; HeLa
T11 construct: endogenous in cells; host or cells: HeLa cell extract
T11 sequence (P68371 whole entry): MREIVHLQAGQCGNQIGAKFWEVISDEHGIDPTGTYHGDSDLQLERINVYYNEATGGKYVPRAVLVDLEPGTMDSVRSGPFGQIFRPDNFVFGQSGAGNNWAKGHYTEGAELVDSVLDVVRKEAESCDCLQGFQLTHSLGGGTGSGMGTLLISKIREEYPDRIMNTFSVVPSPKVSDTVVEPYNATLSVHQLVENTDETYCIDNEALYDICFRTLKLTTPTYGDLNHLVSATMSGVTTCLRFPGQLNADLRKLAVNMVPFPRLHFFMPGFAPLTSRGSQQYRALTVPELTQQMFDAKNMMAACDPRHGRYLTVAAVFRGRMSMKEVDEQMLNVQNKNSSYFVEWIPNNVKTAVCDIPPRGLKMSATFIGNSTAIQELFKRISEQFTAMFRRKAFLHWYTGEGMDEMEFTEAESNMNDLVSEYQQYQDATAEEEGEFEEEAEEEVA

[12] = target: T12, HeLa cell extract proteins (Homo sapiens, UniProt Q5BJD5); settings: captured protein TMEM41B; HeLa
T12 construct: endogenous in cells; host or cells: HeLa cell extract
T12 sequence (Q5BJD5 1-291): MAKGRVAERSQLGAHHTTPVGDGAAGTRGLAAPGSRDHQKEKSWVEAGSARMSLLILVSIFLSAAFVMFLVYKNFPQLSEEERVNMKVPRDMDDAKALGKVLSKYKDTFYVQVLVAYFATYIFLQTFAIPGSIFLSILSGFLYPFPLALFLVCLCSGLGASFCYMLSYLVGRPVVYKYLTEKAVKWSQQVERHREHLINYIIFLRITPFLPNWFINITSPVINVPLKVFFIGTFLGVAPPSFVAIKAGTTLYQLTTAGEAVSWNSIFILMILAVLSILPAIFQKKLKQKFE

[13] = target: T13, HeLa cell extract proteins (Homo sapiens, UniProt P62495); settings: protein ETF1; HeLa
T13 construct: endogenous in cells; host or cells: HeLa cell extract

Row | SMILES | fold changes relative to vehicle control ([1]; HeLa, protein CTSA) | fold changes relative to vehicle control ([2]; HeLa, protein IMPDH2) | fold changes relative to vehicle control ([3]; HeLa, protein HIST1H2AD) | fold changes relative to vehicle control ([4]; HeLa, protein RPL22) | fold changes relative to vehicle control ([5]; HeLa, protein ANKRD52) | fold changes relative to vehicle control ([6]; HeLa, protein NIPSNAP1) | fold changes relative to vehicle control ([7]; protein POLR1C, HeLa) | fold changes relative to vehicle control ([8]; HeLa, captured protein DDT) | fold changes relative to vehicle control [9] | fold changes relative to vehicle control [10] | fold changes relative to vehicle control [11] | fold changes relative to vehicle control [12] | fold changes relative to vehicle control [13] | also measured
1 | Nc1nc2c(c(=O)[nH]1)N(C=O)C(CNc1ccc(C(=O)N[C@@H](CCC(=O)O)C(=O)O)cc1)CN2 (some centres unmarked) [LEU, leucovorin] | 1.01 | 1.06 | 0.96 | 0.86 | 0.89 | 1.02 | 0.87 | 1.06 | – | – | – | – | – | –
2 | Nc1nc2[nH]cc(CCc3ccc(C(=O)N[C@@H](CCC(=O)O)C(=O)O)cc3)c2c(=O)[nH]1 [PTX, pemetrexed] | – | – | – | – | – | – | – | – | – | – | – | – | – | fold changes relative to vehicle control [1]: 0.77; fold changes relative to vehicle control [2]: 0.97; fold changes relative to vehicle control [3]: 1.03; fold changes relative to vehicle control [4]: 0.98; fold changes relative to vehicle control [5]: 1.01; fold changes relative to vehicle control [6]: 1.03; fold changes relative to vehicle control [7]: 0.9; fold changes relative to vehicle control [8]: 1.49
3 | CCCCCCOc1ccc(Cc2cnc(N)nc2N)cc1 [compound 1] | – | – | – | – | – | – | – | – | 0.99 | 0.92 | 1.03 | 1.09 | 1.08 | –
4 | CCCCCCOc1cccc(Cc2cnc(N)nc2N)c1 [compound 2] | – | – | – | – | – | – | – | – | 1.12 | 1.28 | 0.94 | 1.09 | 1.92 | –
5 | Nc1nc2cccc(-c3ccccc3)c2n1Cc1ccc(Cl)c(Cl)c1 [compound 3] | – | – | – | – | – | – | – | – | 1.61 | 0.88 | 1.02 | 1.08 | 1.24 | –
6 | NCCOCCOCC(=O)Nc1nc2ncc(CNc3ccc(C(=O)NC(CCC(=O)O)C(=O)O)cc3)nc2c(=O)[nH]1 (centres unmarked) [compound 6] | 0.87 | 1.18 | 1.18 | 1.2 | 1.06 | 1.04 | 0.97 | 1.79 | – | – | – | – | – | –
7 | NCCCNc1ccc(C(=O)NC(CCC(=O)O)C(=O)O)cc1 (centres unmarked) [compound 7] | 1.13 | 1.03 | 0.97 | 1.19 | 1.03 | 1.03 | 0.95 | 1.25 | – | – | – | – | – | –
